Activity calls are given as the source filed them. Rule as the data show it: actives have a measured IC50 and inactives only a lower limit.
Target: Envelope glycoprotein gp160 (Human immunodeficiency virus 1, UniProt Q6QLK5)
Assay: inhibitors of HIV fusion peptide binding, primary screen, biochemical, uHTS, fluorescence dequenching (AID 1986)

Envelope glycoprotein gp160, sequence (Q6QLK5 whole entry, the tested form may be a part): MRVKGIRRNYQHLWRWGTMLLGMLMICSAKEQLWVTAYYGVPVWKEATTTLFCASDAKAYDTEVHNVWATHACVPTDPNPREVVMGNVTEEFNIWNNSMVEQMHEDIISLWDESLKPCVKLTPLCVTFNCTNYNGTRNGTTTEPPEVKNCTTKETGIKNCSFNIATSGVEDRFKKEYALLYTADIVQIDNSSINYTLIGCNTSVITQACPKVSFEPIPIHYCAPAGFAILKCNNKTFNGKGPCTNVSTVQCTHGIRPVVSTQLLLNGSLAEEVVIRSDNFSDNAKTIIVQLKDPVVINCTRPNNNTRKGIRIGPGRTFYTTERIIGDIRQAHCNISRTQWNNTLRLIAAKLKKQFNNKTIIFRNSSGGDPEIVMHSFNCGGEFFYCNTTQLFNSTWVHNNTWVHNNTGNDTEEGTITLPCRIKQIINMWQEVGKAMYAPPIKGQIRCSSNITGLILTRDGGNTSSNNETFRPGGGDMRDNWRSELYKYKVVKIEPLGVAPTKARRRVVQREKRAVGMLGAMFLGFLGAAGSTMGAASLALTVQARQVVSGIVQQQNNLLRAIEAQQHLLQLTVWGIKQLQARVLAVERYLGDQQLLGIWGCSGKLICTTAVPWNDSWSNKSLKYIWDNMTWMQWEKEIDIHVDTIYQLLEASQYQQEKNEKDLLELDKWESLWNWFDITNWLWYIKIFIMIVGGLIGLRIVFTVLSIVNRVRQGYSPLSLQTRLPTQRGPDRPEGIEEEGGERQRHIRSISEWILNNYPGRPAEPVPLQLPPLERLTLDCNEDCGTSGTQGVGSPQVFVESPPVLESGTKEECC

**Q.** O=C(O)CSc1ncnc2c1sc1nc(-c3ccccc3)c3c(c12)CCC3 was tested. Which IC50 did it give?
**A.** 28 µM (active)

**Q.** For O=C(O)COc1ccc(/C=C/C(=O)c2ccc(C3CCCCC3)cc2)cc1, which IC50 is on record?
**A.** 17.7 µM (active)

**Q.** For CS(=O)(=O)C1=NSC2=NC(=O)/C(=C\c3ccc(OS(=O)(=O)c4ccccc4)cc3)C(=N)N21, which IC50 is on record?
**A.** 18.2 µM (active)

**Q.** For COc1cc(/C=C2/SC(=S)N(CC(=O)O)C2=O)ccc1OCC(=O)Nc1ccc(C)c(C)c1, which IC50 is on record?
**A.** 17.9 µM (active)

**Q.** Which IC50 does the source give for COc1ccc(/N=C2\S/C(=C\c3ccc(OC(C)C(=O)O)c(OC)c3)C(=O)N2CCc2c[nH]c3ccccc23)cc1 (stereo not given) here?
**A.** 18.9 µM (active)
